Patent US4066743A, “X-ray contrast agents” (Mallinckrodt, Inc., priority 1976, dated 1978)
Where two headings read alike, the source gives them in different places.

Key:
[1] = water solubility of the sodium salt; assay type: physicochemical
[2] = tested on: Swiss Albino mice; assay: Intracerebral Toxicity in Mice; assay type: in vivo; conditions: N-methylglucamine (meglumine) salt, 7 day observation, Litchfield and Wilcoxon
Protocol: (§1) Toxicity evaluations by three different techniques were carried out on solutions of the N-methylglucamine salts of 3-acetamido-5-(4,4-bishydroxymethyl-2-oxazolinyl)-2,4,6-triiodobenzoic acid and 3-acetamido-5-(4-methyl-4-hydroxymethyl-2-oxazolinyl)-2,4,6-triiodobenzoicacid. The techniques utilized are outlined below.
II. Intracerebral Toxicity in Mice
Swiss Albino mice (Charles River) were used. Fixed volumes of solutions of various concentrations of the iodinated compounds were injected intracerebrally via a 27 gauge needle, (1/4 inch length) according to the method of Haley, et al. (Br. J. of Pharmac. 12:12-15, 1957). The animals were observed immediately after injections and daily throughout a 7 day observation period. The LD50 values were calculated by the method of Litchfield and Wilcoxon (J. of Pharmac. and Exptl. Therap. 96:99-113, (1949)).

[3] = tested on: Swiss Albino mice; assay: Acute Intravenous Toxicity Studies in Mice; assay type: in vivo; conditions: N-methylglucamine (meglumine) salt, i.v. lateral tail vein, 1 ml./min, 7 day observation, Litchfield and Wilcoxon
Protocol: as §1
I. Acute Intravenous Toxicity Studies in Mice
Swiss Albino mice (Charles River) were dosed in the lateral tail vein with solutions of the iodinated compounds containing 50.4% iodine in the case of 3-acetamido-5-(4,4-bishydroxymethyl-2-oxazolinyl)-2,4,6-triiodobenzoic acid and 28.2% iodine in the case of 3-acetamido-5-(4-methyl-4-hydroxymethyl-2-oxazolinyl)-2,4,6-triiodobenzoicacid, injected at the rate of 1 ml./min. […] The LD50 values were calculated by the method of Litchfield and Wilcoxon (J. of Pharmac. and Exptl. Therap. 96: 99-113, 1949).

[4] = tested on: Sprague Dawley rats; assay: Intracisternal Toxicity in Rats; assay type: in vivo; conditions: N-methylglucamine (meglumine) salt, 2 day observation, Litchfield and Wilcoxon
Protocol: as §1
III. Intracisternal Toxicity in Rats
Sprague Dawley (Carworth) rats were used. The method used was a variation of the procedure outlined by Melartin et al. (Invest. Rad. 5:13-21, 1970). After dosing, the animals were housed individually, and observed for immediate reactions and periodically for a 2 day observation period. The LD50 values were calculated according to the method of Litchfield and Wilcoxon, (J. of Pharmac. and Exptl. Therap. 96:[…], 1949).

[5] = read-out: water solubility of the sodium salt

SMILES | solubility [1, 5] | LD50 of Meglumine Salt, Intracerebral (Mice) [2] | LD50 of Meglumine Salt, I.V. (Mice) [3] | LD50 of Meglumine Salt, Intracisternal (Rats) [4] | solubility ([1]; w/v not given, read-out: solubility of the sodium salt)
CC(CO)(CO)NC(=O)c1c(I)c(N)c(I)c(C(=O)O)c1I [Example 6, 5-Amino-N-[2-(1,3-dihydroxy-2-methyl)propyl]-2,4,6-triiodoisophthalamic Acid] | ~830 mg/mL |  |  |  | 
CC(=O)Nc1c(I)c(C(=O)O)c(I)c(C2=NC(CO)(CO)CO2)c1I [Example 4, 3-Acetamido-5-(4,4-bis(hydroxymethyl)-2-oxazolinyl)-2,4,6-triiodobenzoic Acid] | 958 mg/mL | 485 mg. contained iodine/kg. anima | 5,522 mg. contained iodine/kg. anima | 55 mg. contained iodine/kg. anima | 
CC(=O)Nc1c(I)c(C(=O)O)c(I)c(C2=NC(C)(CO)CO2)c1I (stereo not shown) [Example 8, 3-Acetamido-5-(4-methyl-4-hydroxymethyl-2-oxazolinyl)-2,4,6-triiodobenzoic Acid] |  | 280 mg. contained iodine/kg. anima | 5,500 mg. contained iodine/kg. anima | 28 mg. contained iodine/kg. anima | 738 mg/mL
Nc1c(I)c(C(=O)O)c(I)c(C(=O)NC(CO)(CO)CO)c1I [Example 3, 5-Amino-N-[tris(hydroxymethyl)methyl]-2,4,6-triiodoisophthalamic Acid] | ~800 mg/mL |  |  |  | 
